Data published in US8765946B2, “Methods of preparing and using quinazoline and quinoline derivatives” (priority 2006, dated 2014).

Key:
BT474 cells = assay: BT-474 cell growth inhibition assay (SRB assay); type: cell-based; conditions: Homo sapiens, concentration of 3 μM, 72 h, read-out: Inhibition Percent (%)
Procedure: BT-474 Cell Growth Inhibition Assay (SRB Assay)
BT-474 human breast cancer cell lines were kindly provided by Dr. Changnian Liu, Pharmaron Beijing Co., Ltd.
BT-474 cells were cultured in 37° C., 5% CO2, saturated humidity until logarithmic phase. Discarded culture medium, washed cells once by PBS. Added 1 ml Trypsin/EDTA solution, stood at 37° C. for 5 min, allowed the cells to detach. Added culture medium, adjusted the cells density to 1×10^5 cells/ml.
Day 0, added 100 μl/well cells suspension to 96-well cell culture plates. Incubated overnight to let the cells attach completely.
Day 1, compounds (2 mM in DMSO as stock solution) was diluted to 20 μM in EMEM. Then a fourfold serial dilution was made. These diluted compounds were made as 10× reaction solutions, and the concentration of DMSO was kept at 1%.
Added 80 μl culture medium and 20 μl 10× compound reaction solution to the testing wells, or vehicle control to the control wells. Co-incubated cells with compounds for another 72 h.
Day 3, fixed cellular protein by the addition of 100 μl/well of 10% TCA (diluting from 50% TCA) at 4° C. for 1 h. Rinsed TCA using plate washer, and washed five times using distilled water. Removed the residual wash solution with a piece of absorbent paper. Added 100 μl/well 0.4% SRB solution, allowed a 15-30 min staining period. Removed the SRB, and washed the culture plates five times using 1% acetic acid. Removed the residual wash solution with a piece of absorbent paper. Air-dried the culture plates, dissolved the protein-bound dye with 100 μl/well of 10 mM Tris base solution. Shook the plates until the dye was dissolved completely.

A431 cells = assay: A431 cell growth inhibition assay (MTT assay); type: cell-based; conditions: Homo sapiens; for EC50: A-431, 72 hours (Table 11); for inhibition at 3 µM: A-431, concentration of 3 μM, 72 hours, read-out: Inhibition Percent (%)
Procedure: A431 Cell Growth Inhibition Assay (MTT Assay)
A431, an epidermoid carcinoma cell line; The Cell Bank, Committee on Type Culture Collection Chinese Academy of Science, Shanghai.
Mix prepared medium DMEM and F12 in the proportion of 1:1, then add FBS to a final concentration of 10%.
Dissolved the dried compound sample with 100% DMSO to 2 mM. Then diluted the dissolved compound to 20 μM with cell complete growth medium.
Prior to the assay, cultured the A431 to logarithmic phase, and then removed medium from cell monolayers and wash the cells once with sterilized PBS. Aspriated the PBS and added 2 mL trypsin solution to cover the cell growth surface, removed 1 mL trypsin solution after soaking about 1 minute. Transferred the cell-culture plate to CO2 incubator; incubated at 37° C. for 8 minutes to allow cells to dissociate. After the cells detached, added 4 mL complete growth medium containing FBS with pipette to disperse them off and mixed gently to obtain a homogeneous cell suspension. Aspirated some of the cell suspension to a sterilized polypropylene tube, and determined the cell concentration by counting in a hematocytometer chamber under a microscope. Adjusted the cell concentration with growth medium to obtain 2.5×10^4 cells per milliliter.
Added 100 μL adjusted cell suspension to the 96-well cell-culture plate and occasionally mixed the cell suspension during the seeding process. After seeding cells, incubated the plate at 37° C. overnight with 5% CO2 in the CO2 incubator for cell attachment.
After the cell attachment, added 100 μL prepared compound solutions to the corresponding wells (add PBS to the ambient wells of the plate). The final compound concentrations ranged from 10 μM to 1.52 nM. Incubated the plate at 37° C. with 5% CO2 for 72 hours in the CO2 incubator.
After the exposure to the compound, removed the cell culture supernatant. Then added 100 μL 0.5 mg/mL MTT solution which dissolved in the growth medium without FBS. Incubated the plate at 37° C. with 5% CO2 for another 4 hours to allow the MTT reaction to proceed.
After the MTT reaction, discarded the MTT reaction solution. Added 100 μL DMSO to each well, and the plate was agitated on the plate shaker for several minutes to dissolve the formazan. Then, detected the absorbance at 490 nm using microplate reader.

EC50 (A431 cells)	Structure (SMILES)	inhibition at 3 µM (BT474 cells)	inhibition at 3 µM (A431 cells)
3400 nM	CCOc1cc2ncc(C#N)c(Nc3ccc(OCc4cccc(F)c4)c(Cl)c3)c2cc1NC(=O)C=C1CCNCC1 [Example 145, N-(4-(4-(3-fluorobenzyloxy)-3-chlorophenylamino)-3-cyano-7-ethoxyquinolin-6-yl)-2-(piperidin-4-ylidene)acetamide]	80%	49%
	COc1cc2ncc(C#N)c(Nc3ccc(Oc4cccc(F)c4)c(Cl)c3)c2cc1NC(=O)C=C1CCNCC1 [Example 146, N-(4-(3-chloro-4-(3-fluorophenoxy)phenylamino)-3-cyano-7-methoxyquinolin-6-yl)-2-(piperidin-4-ylidene)acetamide]	85%	52%
	COCCOc1cc2ncc(C#N)c(Nc3ccc(F)c(Cl)c3)c2cc1NC(=O)C=C1CCNCC1 [Example 149, N-(4-(3-chloro-4-fluorophenylamino)-3-cyano-7-(2-methoxyethoxy)quinolin-6-yl)-2-(piperidin-4-ylidene)acetamide]	53%	92%
140 nM	C#Cc1cccc(Nc2c(C#N)cnc3cc(OCC)c(NC(=O)C=C4CCNCC4)cc23)c1 [Example 152, N-(3-cyano-7-ethoxy-4-(3-ethynylphenylamino)quinolin-6-yl)-2-(piperidin-4-ylidene)acetamide]	59%	95%
	COc1cc2ncc(C#N)c(Nc3cccc(Br)c3)c2cc1NC(=O)C=C1CCNCC1 [Example 155, N-(4-(3-bromophenylamino)-3-cyano-7-methoxyquinolin-6-yl)-2-(piperidin-4-ylidene)acetamide]	58%	90%
	CCOc1cc2ncc(C#N)c(Nc3ccc(F)c(Cl)c3)c2cc1NC(=O)C=C1CCN(C)CC1 [Example 156, N-(4-(3-chloro-4-fluorophenylamino)-3-cyano-7-ethoxyquinolin-6-yl)-2-(1-methylpiperidin-4-ylidene)acetamide]	60%	89%
	CCOc1cc2ncc(C#N)c(Nc3ccc(F)c(Cl)c3)c2cc1NC(=O)C=C1CCN(CCOC)CC1 [Example 157, N-(4-(3-chloro-4-fluorophenylamino)-3-cyano-7-ethoxyquinolin-6-yl)-2-(1-(2-methoxyethyl)piperidin-4-ylidene)acetamide]	59%	85%
	C#Cc1cccc(Nc2c(C#N)cnc3cc(OCC)c(NC(=O)C=C4CCN(C)CC4)cc23)c1 [Example 158, N-(3-cyano-7-ethoxy-4-(3-ethynylphenylamino)quinolin-6-yl)-2-(1-methylpiperidin-4-ylidene)acetamide]	57%	90%
	C#Cc1cccc(Nc2c(C#N)cnc3cc(OCC)c(NC(=O)C=C4CCN(CCOC)CC4)cc23)c1 [Example 159, N-(3-cyano-7-ethoxy-4-(3-ethynylphenylamino)quinolin-6-yl)-2-(1-(2-methoxyethyl)piperidin-4-ylidene)acetamide]	53%	83%
	CCOc1cc2ncc(C#N)c(Nc3ccc(OCc4ccccn4)c(Cl)c3)c2cc1NC(=O)C=C1CCN(CCOC)CC1 [Example 161, N-(4-(3-chloro-4-(pyridin-2-ylmethoxy)phenylamino)-3-cyano-7-ethoxyquinolin-6-yl)-2-(1-(2-methoxyethyl)piperidin-4-ylidene)acetamide]	90%	49%
	CCOc1cc2ncc(C#N)c(Nc3ccc(OCc4cccc(F)c4)c(Cl)c3)c2cc1NC(=O)C=C1CCN(C)CC1 [Example 162, N-(4-(4-(3-fluorobenzyloxy)-3-chlorophenylamino)-3-cyano-7-ethoxyquinolin-6-yl)-2-(1-methylpiperidin-4-ylidene)acetamide]	91%	41%
	COc1cc2ncc(C#N)c(Nc3ccc(OCc4ccccn4)c(Cl)c3)c2cc1NC(=O)C=C1CCN(C)CC1 [Example 197, N-(4-(3-chloro-4-(pyridin-2-ylmethoxy)phenylamino)-3-cyano-7-methoxyquinolin-6-yl)-2-(1-methylpiperidin-4-ylidene)acetamide]	82%	
	COCCN1CCC(=CC(=O)Nc2cc3c(Nc4ccc(OCc5ccccn5)c(Cl)c4)c(C#N)cnc3cc2OC)CC1 [Example 198, N-(4-(3-chloro-4-(pyridin-2-ylmethoxy)phenylamino)-3-cyano-7-methoxyquinolin-6-yl)-2-(1-(2-methoxyethyl)piperidin-4-ylidene)acetamide]	86%	
	CCOc1cc2ncc(C#N)c(Nc3ccc(OCc4ccccn4)c(Cl)c3)c2cc1NC(=O)C=C1CCN(CC)CC1 [Example 199, N-(4-(3-chloro-4-(pyridin-2-ylmethoxy)phenylamino)-3-cyano-7-ethoxyquinolin-6-yl)-2-(1-ethylpiperidin-4-ylidene)acetamide]	87%	
	COCCOc1cc2ncc(C#N)c(Nc3ccc(OCc4ccccn4)c(Cl)c3)c2cc1NC(=O)C=C1CCN(C)CC1 [Example 200, N-(4-(3-chloro-4-(pyridin-2-ylmethoxy)phenylamino)-3-cyano-7-(2-methoxyethoxy)quinolin-6-yl)-2-(1-methylpiperidin-4-ylidene)acetamide]	90%	
	CCN1CCC(=CC(=O)Nc2cc3c(Nc4ccc(OCc5ccccn5)c(Cl)c4)c(C#N)cnc3cc2OCCOC)CC1 [Example 201, N-(4-(3-chloro-4-(pyridin-2-ylmethoxy)phenylamino)-3-cyano-7-(2-methoxyethoxy)quinolin-6-yl)-2-(1-ethylpiperidin-4-ylidene)acetamide]	89%	
	CCCN1CCC(=CC(=O)Nc2cc3c(Nc4ccc(OCc5ccccn5)c(Cl)c4)c(C#N)cnc3cc2OCCOC)CC1 [Example 202, N-(4-(3-chloro-4-(pyridin-2-ylmethoxy)phenylamino)-3-cyano-7-(2-methoxyethoxy)quinolin-6-yl)-2-(1-propylpiperidin-4-ylidene)acetamide]	92%	
	CCOc1cc2ncc(C#N)c(Nc3ccc(OCc4cccc(F)c4)c(Cl)c3)c2cc1NC(=O)C=C1CCN(CC)CC1 [Example 206, N-(4-(4-(3-fluorobenzyloxy)-3-chlorophenylamino)-3-cyano-7-ethoxyquinolin-6-yl)-2-(1-ethylpiperidin-4-ylidene)acetamide]	80%	
	COCCOc1cc2ncc(C#N)c(Nc3ccc(OCc4cccc(F)c4)c(Cl)c3)c2cc1NC(=O)C=C1CCN(C)CC1 [Example 208, N-(4-(4-(3-fluorobenzyloxy)-3-chlorophenylamino)-3-cyano-7-(2-methoxyethoxy)quinolin-6-yl)-2-(1-methylpiperidin-4-ylidene)acetamide]	83%	
	CCN1CCC(=CC(=O)Nc2cc3c(Nc4ccc(OCc5cccc(F)c5)c(Cl)c4)c(C#N)cnc3cc2OCCOC)CC1 [Example 209, N-(4-(4-(3-fluorobenzyloxy)-3-chlorophenylamino)-3-cyano-7-(2-methoxyethoxy)quinolin-6-yl)-2-(1-ethylpiperidin-4-ylidene)acetamide]	78%	
	COCCOc1cc2ncc(C#N)c(Nc3ccc(OCc4cccc(F)c4)c(Cl)c3)c2cc1NC(=O)C=C1CCN(CCOC)CC1 [Example 211, N-(4-(4-(3-fluorobenzyloxy)-3-chlorophenylamino)-3-cyano-7-(2-methoxyethoxy)quinolin-6-yl)-2-(1-(2-methoxyethyl)piperidin-4-ylidene)acetamide]	81%	
